Assay results reported in ChEMBL document CHEMBL1148616, “Synthesis and structure-activity relationships of novel poly(ADP-ribose) polymerase-1 inhibitors” (Bioorg Med Chem Lett, 2006).
pIC50: −log10 of the molar value.

Molecular target: Poly [ADP-ribose] polymerase 1 (Homo sapiens, UniProt P09874)
Sequence (P09874 whole entry): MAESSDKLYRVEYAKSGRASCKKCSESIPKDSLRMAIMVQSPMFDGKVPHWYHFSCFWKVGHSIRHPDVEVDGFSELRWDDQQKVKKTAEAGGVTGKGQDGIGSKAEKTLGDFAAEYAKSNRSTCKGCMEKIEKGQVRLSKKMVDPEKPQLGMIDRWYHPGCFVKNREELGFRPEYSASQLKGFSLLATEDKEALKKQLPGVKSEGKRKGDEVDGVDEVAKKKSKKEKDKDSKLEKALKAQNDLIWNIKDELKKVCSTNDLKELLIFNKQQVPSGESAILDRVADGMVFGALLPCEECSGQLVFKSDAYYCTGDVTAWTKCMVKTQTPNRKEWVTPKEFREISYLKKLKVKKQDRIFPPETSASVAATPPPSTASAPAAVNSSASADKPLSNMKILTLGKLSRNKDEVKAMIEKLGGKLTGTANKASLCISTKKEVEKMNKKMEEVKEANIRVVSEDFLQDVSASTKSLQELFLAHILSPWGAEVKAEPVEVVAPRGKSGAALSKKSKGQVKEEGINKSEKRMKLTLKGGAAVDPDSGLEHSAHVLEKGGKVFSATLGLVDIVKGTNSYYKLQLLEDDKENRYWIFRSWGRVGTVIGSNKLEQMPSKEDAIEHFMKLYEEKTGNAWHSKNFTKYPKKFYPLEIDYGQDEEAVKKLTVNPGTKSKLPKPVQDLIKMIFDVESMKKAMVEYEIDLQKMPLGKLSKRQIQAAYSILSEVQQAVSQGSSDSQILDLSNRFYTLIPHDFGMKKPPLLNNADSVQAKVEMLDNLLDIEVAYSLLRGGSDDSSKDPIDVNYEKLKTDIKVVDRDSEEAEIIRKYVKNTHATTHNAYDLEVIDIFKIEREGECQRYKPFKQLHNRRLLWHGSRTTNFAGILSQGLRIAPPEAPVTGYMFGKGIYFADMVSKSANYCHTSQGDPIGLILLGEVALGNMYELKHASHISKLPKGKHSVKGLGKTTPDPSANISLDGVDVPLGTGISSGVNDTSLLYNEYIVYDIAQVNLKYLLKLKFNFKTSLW
Description: Inhibitory activity against human PARP1 expressed in PC12 cells

| pIC50 | Compound |
| --- | --- |
| < 5.00 | O=C1NC(=O)c2c1c1c(c3sc4ccccc4c23)CCC1 |
| 7.59 | Nc1ccc2c3c(cccc13)C(=O)NC2=O |
| < 5.00 | O=C1NC(=O)c2c1c1c(c3oc4ccccc4c23)CCC1 |
| < 5.00 | CCCc1c2c(c3c([nH]c4ccccc43)c1CC)C(=O)NC2=O |
| < 5.00 | O=C1NC(=O)c2c1c1ccccc1c1[nH]c3ccccc3c21 |
